Experimental findings from patent US20230242669A1, “ANTIBODY THAT BINDS ERBB-2 AND ERBB-3” (Merus N.V., priority 2014, published 2023) are described below.

The test system of data set [1] is JIMT-1 cells. The experiment in a line: JIMT-1 proliferation in soft agar. Conditions: 10-0.003 µg/ml, 8 days. In kind it is cell-based, human. The protocol: To this aim 96 well suspension cell culture plates were prepared. 100 µL of the soft agar bottom layer (0.6% final concentration in complete medium) was poured and left to solidify. 50 µL of the soft agar top layer (0.4% final concentration) containing 10.000 JIMT-1 cells/well were then added on top, solidified and such 96 well plates incubated overnight at 37° C., 10% CO2. […] Subsequently, the assay was incubated in cell culture incubators for 8 days. Finally, the cells were incubated with Alamar Blue for 3-5 h at 37° C. and fluorescence intensity was determined (excitation: 560 nm; emission: 590 nm). […] (FIG. 8).

Data set [2] deals with SK-BR-3 and MCF-7 target cells. The experiment in a line: ADCC 51Cr release assay. In kind it is cell-based, human. Conditions: whole blood or PBMC effector cells. The protocol:
ADCC activity is an important anti-tumour mechanism of action for therapeutic antibodies in cancer. […] Trastuzumab and a negative control antibody were included as control antibodies in the experiment. Whole blood and PBMC fractions were obtained from healthy donors. Each antibody was tested against the HER2 high (SK-BR-3) and HER2 low (MCF-7) expressing target cells. Target cells were loaded with ^51Cr (Amersham) and opsonized with the indicated concentrations of antibody. Whole-blood or PBMC fraction were used as effector cells in a 200 µL reaction in RPMI 1640 + 10% heat inactivated FCS. Cells were incubated together for 4 h, and lysis was estimated by measuring radioactivity in the supernatant using a Y^- scintillator. Percentage of specific lysis was calculated as follows: (experimental cpm – basal cpm) / (maximal cpm – basal cpm) × 100, with maximal lysis determined in the presence of 5% Triton X-100 and basal lysis in the absence of antibody and effectors.
ADCC activity can be enhanced by different techniques, one of them being the removal of fucose. […] Both antibodies were applied in a serial dilution and a negative control antibody and trastuzumab were included in the assay.

Data set [3] concerns human stem cell derived cardiomyocytes. The experiment in a line: Cardiomyocyte viability under doxorubicin stress. The format is cell-based. To be noted: 3 µM doxorubicin, 10 ng/ml HRG; monospecific antibodies 68 nM.
Description: Human stem cell derived cardiomyocytes (Pluriomics BV) were seeded at a concentration of 20.000 well in white flat-bottom assay plates (corning 655098). On day 5 of culture the medium was replaced for glucose and galactose free culture medium supplemented with 10 ng/ml HRG. On day 7 test antibodies were added in combination with doxorubicin (3 µM). Cell viability was assayed on day 9 using the Promega Cell titer Glo assay.
In data set [4] the test system is HER2+, HER2++ and HER2+++ breast and gastric cancer cell lines. Description: FACS binding to cell lines with different HER2 levels. The arrangement: species or system human. To be noted: HER2++ and HER2+ cells. The protocol:
Cells were considered HER2+++ if they express millions of HER2 copies and/or are HER2 gene amplified. The following cell lines were used: MCF-7 (HER 2 +); MDA-MB-468 (HER2 +, MKN-45 (HER2 +), MDA-MB-175 (HER2+), MDA-MB-453 (HER2 ++), MDA-MB-361(HER2 ++), ZR-75-1(HER2 ++), JIMT-1 (HER2+++), BT-474 (HER2+++), SKBR-3 (HER2+++), SK-OV-3 (HER2+++), N87 (HER2+++). Cells of an exponentially grown culture were harvested by trypsin and diluted to 10^6 cells/ml in FACS buffer (PBS/0.5%BSA/0.5 mM EDTA). 1-2 10^5 cells were added to each well in a U-bottom 96 well plate. Cells were centrifuged for 2 minutes at 300 g at 4° C. Supernatant was discarded by inverting plate(s) above, followed by flicking once. 50 µl of each IgG sample was added in a serial dilution from 3.16 ng- 10 µg/ml and incubated for 1H on ice. Cells were centrifuged once, supernatant was removed and cells were washed twice with FACS buffer. 50 µl diluted 1:100 mouse anti human IgG gamma PE (INVITROGEN®) was added and incubated for 30-60 minutes on ice in the dark. […] Cells were analysed on a FACSCanto Flow cytometer in a HTS setting. The quantity of antibody bound was assessed by median fluorescence. Data were plotted and the area under the curve (AUC, a cumulative measurement of the median fluorescence intensity) was determined for each antibody per cell line tested (FIG. 26).
(In general: A flow cytometer gives signals particle by particle.)

For data set [5], the system named is HRG mediated phosphorylation in N87 and SKBR-3 cells. The experiment in a line: Western blot of HRG stimulated cells. Conditions: 5 nM antibody, 100 ng/ml HRG, 1-24 hours. In kind it is cell-based, human. On the procedure: Cells of an exponentially grown culture were harvested and seeded in 10 cm dishes (20×10^6 cells for N87 and 7×10^6 cells for SKBR-3) in starvation medium (N87 cells: RPMI-1640, 0.05% BSA, 10 µg/ml Holo-transferrin; SKBR-3 cells: DMEM/F-12, 2 mM L-glutamine, 0.05% BSA, 10 µg/ml Holo-transferrin). The next day, antibodies were added to a final concentration of 5 nM and cells were incubated for one hour. HRG was then added to a final concentration of 100 ng/ml. After 1, 3, 6 or 24 hours, dishes were placed on ice, cells were washed twice with cold PBS, transferred to Eppendorf tubes and lysed with 250 µl of RIPA lysis buffer (20 mM Tris-HCl pH 7.5, 150 mM NaCl, 1 mM Na2EDTA, 1 mM EGTA, 1% NP-40, 1% sodium deoxycholate, 0.1% SDS, 2.5 mM sodium pyrophosphate, 1 mM beta-glycerophosphate, 1 mM Na3VO4, 1 µg/ml leupeptin). Lysis was allowed to proceed for 30 minutes on ice. Cell lysates were centrifuged and supernatants were collected in new Eppendorf tubes. Protein concentration was determined using the BCA method (Pierce). […] Membranes were blocked for one hour with TBS-T containing 5 % BSA and stained with the indicated antibodies according to the manufacturer’s instructions (Cell Signaling Technology). Membranes were then incubated with a HRP-conjugated secondary antibody, incubated with ECL substrate and subjected to autoradiography using X-ray films (Amersham). […]
A general note: In western blotting, separated proteins are transferred to a membrane and probed.

Data set [6] relates to SKBR-3 and N87 cells. The experiment in a line: Internalization of pH-sensitive dye labelled antibodies. The format is cell-based, human. Conditions: 100 nM labelled antibody, 1 ng/ml HRG.

In the case of “PB4188: bispecific HER2xHER3 IgG: HER2 arm MF3958, HER3 arm MF3178”, in data set [1], the “Inhibition of JIMT-1 proliferation” value is listed as “dose dependent inhibition of JIMT-1 proliferation”. Besides, in data set [2], the ADCC activity entry is “effective at high antibody concentrations”. Moreover, the “Cardiomyocyte viability (ATP)” value in data set [3] is “unaffected”. Besides, the “Binding affinity compared to trastuzumab (AUC of median fluorescence)” value in data set [4] is listed as “higher binding affinity”. Besides, in data set [5], the HER3 phosphorylation entry is “prolonged inhibition of HER3 phosphorylation”. Moreover, the Internalization result in data set [6] is reported as “internalizes to the same extend as trastuzumab”.
